# From paper PMC8551951 (Biophysical Reviews, 2021)
# Like-named read-outs stand apart in the source and are kept apart here.
# Tests used:
# [1] = target: dihydroorotate dehydrogenase from Schistosoma mansoni (SmDHODH) (Schistosoma mansoni, UniProt G4VFD7)
# α-synuclein = α-synuclein (Homo sapiens, UniProt P37840); type: cell-based, Saccharomyces cerevisiae; settings: 0.1 mM, without fermentation
# K562 = type: cell-based
# C. neoformans (ATCC H99) = assay: microbe, parasite or virus in culture; type: cell-based; settings: Cryptococcus neoformans
# [2] = tested on: MV released from growth-plate femurs chondrocytes; type: biochemical, chicken
# gill V(H+)-ATPase = type: biochemical, Macrobrachium amazonicum; settings: read-out: constant enzyme inhibitor, 25 °C
# [3] = 2 mg/ml
# [4] = target: TRPV1 channel heterologously expressed in HEK293 cells (Homo sapiens, UniProt Q8NER1); assay: cell-based; settings: HEK293, read-out: % inhibition of capsaicin-induced TRPV1 currents
# paw edema = settings: in vivo
# rat serum albumin (RSA) = rat serum albumin (RSA) (Rattus norvegicus, UniProt P02770); type: binding; settings: interaction density function method; two cooperative sites
# [5] = target: Ca2+-dependent BK channel (Homo sapiens, UniProt Q12791); type: cell-based
# IGR39 cells = type: cell-based
# S. saprophyticus = type: cell-based
# [6] = tested on: CE-AρBza serine proteases; type: biochemical, Canavalia ensiformis
# [7] = tested on: thermal and mechanical sensitivities; RS and NOx levels; type: in vivo, Swiss mice; settings: 1 mg kg-1, intragastric route
# [8] = tested on: Leishmania braziliensis old yellow enzyme (LbOYE); type: biochemical
# [9] = tested on: inflammation, nociception and oxidative stress; settings: mouse, in vivo
# [10] = tested on: glycated human erythrocyte; type: cell-based
# [11] = tested on: oral streptococci biofilm; type: cell-based, Streptococcus; settings: all species
# Drosophila melanogaster = settings: 48 hours
# [12] = tested on: learning and memory behavior; type: in vivo, Swiss mice; settings: 10mg/kg, intragastrically
# K562 cells = type: cell-based
# LUCENA cells = type: cell-based
# Chain of TRPV1 channel heterologously expressed in HEK293 cells (Q8NER1 whole entry): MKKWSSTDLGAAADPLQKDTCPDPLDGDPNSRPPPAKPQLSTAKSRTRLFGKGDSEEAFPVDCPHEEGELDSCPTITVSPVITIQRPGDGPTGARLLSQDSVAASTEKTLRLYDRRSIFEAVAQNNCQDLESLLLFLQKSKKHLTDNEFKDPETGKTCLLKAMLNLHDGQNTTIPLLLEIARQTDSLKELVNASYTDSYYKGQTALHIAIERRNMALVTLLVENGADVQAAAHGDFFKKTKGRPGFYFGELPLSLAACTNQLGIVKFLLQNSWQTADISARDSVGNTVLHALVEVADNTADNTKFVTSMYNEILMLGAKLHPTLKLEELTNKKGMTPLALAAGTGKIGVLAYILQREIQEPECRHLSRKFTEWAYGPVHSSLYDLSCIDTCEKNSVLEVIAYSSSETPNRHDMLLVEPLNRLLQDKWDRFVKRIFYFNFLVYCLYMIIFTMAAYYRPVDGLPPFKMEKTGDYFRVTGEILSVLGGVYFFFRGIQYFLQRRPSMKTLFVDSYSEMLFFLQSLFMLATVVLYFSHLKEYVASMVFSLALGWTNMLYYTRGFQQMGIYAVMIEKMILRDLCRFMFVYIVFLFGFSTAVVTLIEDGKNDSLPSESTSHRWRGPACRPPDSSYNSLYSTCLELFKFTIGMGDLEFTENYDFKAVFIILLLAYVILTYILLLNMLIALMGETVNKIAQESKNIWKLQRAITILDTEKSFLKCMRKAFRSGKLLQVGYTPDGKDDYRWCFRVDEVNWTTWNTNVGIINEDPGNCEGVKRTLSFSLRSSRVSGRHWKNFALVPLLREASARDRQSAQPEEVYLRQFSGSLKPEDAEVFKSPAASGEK
# Chain of Ca2+-dependent BK channel (Q12791 whole entry): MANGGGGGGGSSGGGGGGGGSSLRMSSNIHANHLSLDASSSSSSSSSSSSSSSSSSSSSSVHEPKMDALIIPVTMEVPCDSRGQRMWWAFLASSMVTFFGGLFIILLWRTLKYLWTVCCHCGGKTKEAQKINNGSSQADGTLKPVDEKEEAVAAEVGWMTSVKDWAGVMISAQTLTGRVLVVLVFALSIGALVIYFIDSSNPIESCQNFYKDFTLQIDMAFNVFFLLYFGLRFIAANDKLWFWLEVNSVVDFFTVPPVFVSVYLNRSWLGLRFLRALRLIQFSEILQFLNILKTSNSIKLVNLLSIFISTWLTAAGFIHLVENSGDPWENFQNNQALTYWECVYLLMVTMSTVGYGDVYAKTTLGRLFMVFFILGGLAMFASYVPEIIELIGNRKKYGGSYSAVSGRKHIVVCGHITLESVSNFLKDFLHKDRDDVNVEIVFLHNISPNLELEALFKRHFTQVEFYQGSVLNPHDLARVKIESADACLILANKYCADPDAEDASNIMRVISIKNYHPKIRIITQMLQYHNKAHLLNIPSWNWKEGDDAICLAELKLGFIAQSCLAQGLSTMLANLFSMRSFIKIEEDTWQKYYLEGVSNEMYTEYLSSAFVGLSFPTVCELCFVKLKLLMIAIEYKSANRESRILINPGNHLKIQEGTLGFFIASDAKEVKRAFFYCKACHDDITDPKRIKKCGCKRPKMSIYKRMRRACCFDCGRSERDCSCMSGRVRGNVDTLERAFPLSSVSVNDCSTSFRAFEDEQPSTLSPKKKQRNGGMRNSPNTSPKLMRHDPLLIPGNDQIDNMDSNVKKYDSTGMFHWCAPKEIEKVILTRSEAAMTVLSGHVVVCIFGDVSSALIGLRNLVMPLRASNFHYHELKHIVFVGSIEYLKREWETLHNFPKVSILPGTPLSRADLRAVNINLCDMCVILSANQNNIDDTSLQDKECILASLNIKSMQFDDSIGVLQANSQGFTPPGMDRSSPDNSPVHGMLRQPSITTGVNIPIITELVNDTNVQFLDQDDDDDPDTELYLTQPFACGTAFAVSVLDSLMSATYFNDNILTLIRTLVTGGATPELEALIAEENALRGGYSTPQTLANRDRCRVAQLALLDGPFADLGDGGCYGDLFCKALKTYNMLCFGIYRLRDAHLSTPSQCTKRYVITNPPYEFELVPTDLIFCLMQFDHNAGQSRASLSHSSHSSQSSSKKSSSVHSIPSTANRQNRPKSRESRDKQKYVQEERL
# Chain of rat serum albumin (RSA) (P02770 25-608): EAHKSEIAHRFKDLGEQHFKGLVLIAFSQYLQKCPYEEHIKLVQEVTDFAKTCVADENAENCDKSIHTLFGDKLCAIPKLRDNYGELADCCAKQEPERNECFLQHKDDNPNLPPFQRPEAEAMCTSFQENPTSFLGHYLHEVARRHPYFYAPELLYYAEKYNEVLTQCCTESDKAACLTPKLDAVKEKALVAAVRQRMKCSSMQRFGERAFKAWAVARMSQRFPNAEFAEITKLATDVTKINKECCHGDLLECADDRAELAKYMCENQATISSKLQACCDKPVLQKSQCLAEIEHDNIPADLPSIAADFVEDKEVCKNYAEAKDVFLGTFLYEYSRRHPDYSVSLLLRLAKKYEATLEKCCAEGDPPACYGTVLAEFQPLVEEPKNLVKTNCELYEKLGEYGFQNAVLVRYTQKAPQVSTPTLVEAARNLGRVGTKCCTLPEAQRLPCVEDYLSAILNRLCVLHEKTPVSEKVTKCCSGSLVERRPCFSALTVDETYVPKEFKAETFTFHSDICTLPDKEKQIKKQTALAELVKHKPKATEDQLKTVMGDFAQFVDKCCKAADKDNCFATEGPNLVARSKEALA
# Chain of dihydroorotate dehydrogenase from Schistosoma mansoni (SmDHODH) (G4VFD7 23-379 limits assumed): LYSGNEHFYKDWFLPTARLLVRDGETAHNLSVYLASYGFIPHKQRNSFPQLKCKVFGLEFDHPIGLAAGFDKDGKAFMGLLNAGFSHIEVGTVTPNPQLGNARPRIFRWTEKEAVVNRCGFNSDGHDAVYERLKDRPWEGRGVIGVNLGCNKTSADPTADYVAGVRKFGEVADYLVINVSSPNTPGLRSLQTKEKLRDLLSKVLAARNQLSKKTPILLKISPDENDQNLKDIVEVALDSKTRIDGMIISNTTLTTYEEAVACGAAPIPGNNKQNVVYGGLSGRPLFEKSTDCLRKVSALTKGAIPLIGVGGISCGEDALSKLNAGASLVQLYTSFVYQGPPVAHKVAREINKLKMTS
compound,measurement,setting,value
O=C1C(O)=C([C@H]2CC[C@H](c3ccc(Cl)cc3)CC2)C(=O)c2ccccc21 [atovaquone],inhibition of SmDHODH,[1],in the nanomolar range
"O=C(/C=C/c1ccc(O)c(O)c1)OCCc1ccccc1 [CAPE, phenethyl ester of caffeic acid]",protein aggregation,α-synuclein,did not inhibit
NC(=O)NC1NC(=O)NC1=O (centres unmarked) [allantoin],death caused by cisplatin,K562,reduction
COC(=O)Nc1nc2cc(C(=O)c3ccc(F)cc3)ccc2[nH]1 [flubendazole],MIC,C. neoformans (ATCC H99),0.047 to 3.12 µM
C[C@@H]1O[C@@H](O[C@H]2C[C@@H](O)[C@]3(CO)[C@H]4[C@H](O)C[C@]5(C)[C@@H](C6=CC(=O)OC6)CC[C@]5(O)[C@@H]4CC[C@]3(O)C2)[C@H](O)[C@H](O)[C@H]1O [ouabain],MV activity in the presence of inhibitor,[2]; 31P-NMR and colorimetric techniques,~95%
CO/C1=C\C(C)=C\[C@@H](C)[C@@H](O)[C@@H](C)C/C(C)=C/C=C/[C@H](OC)[C@@H]([C@@H](C)[C@@H](O)[C@H](C)C2(O)C[C@@H](O)[C@H](C)[C@@H](C(C)C)O2)OC1=O (some centres unmarked) [bafilomycin],Ki,gill V(H+)-ATPase; Grande river population,21.2 ± 1.3 nM
same,Ki,gill V(H+)-ATPase; Tietê river population,35.1 ± 1.1 nM
c1ccc([C@H]2CN3CCSC3=N2)cc1 [Levamisole],effectiveness of inhibition of MV activity compared with ouabain,[2],more effective
CC1=C(C(=O)O)N2C(=O)[C@@H](NC(=O)[C@H](N)c3ccccc3)[C@H]2SC1 [Cephalexin],degradation,[3],highly sucesptible to degradation
CCCSc1ccc2nc(NC(=O)OC)[nH]c2c1 [Albendazole],MIC,C. neoformans (ATCC H99),0.047 to 3.12 µM
CC(C)(O)c1ccccc1CC[C@@H](SCC1(CC(=O)O)CC1)c1cccc(/C=C/c2ccc3ccc(Cl)cc3n2)c1 [Montelukast],inhibition at 0.1 µM,[4],62 ± 8%
Rhodium chloride [RhCl3],paw edema,paw edema,able to reduce paw edema
Piperlongumine [PPL],binding constants,rat serum albumin (RSA),moderate binding constants
CO[C@@H]1[C@@H](OC(N)=O)[C@@H](O)[C@H](Oc2ccc3c(O)c(NC(=O)c4ccc(O)c(CC=C(C)C)c4)c(=O)oc3c2C)OC1(C)C [Novobiocin],inhibition at 0.1 µM,[4],60 ± 7%
DCPIB,currents,[5]; IGR37 cells,not in IGR37 cells
same,currents,"[5]; Panc1, MiaPaca2 and IGR39 cells",dramatic increase of currents
same,Ca2+ influx,IGR39 cells,induces a rapid Ca2+ influx
CN[C@H](CC(C)C)C(=O)N[C@H]1C(=O)N[C@@H](CC(N)=O)C(=O)N[C@H]2C(=O)N[C@H]3C(=O)N[C@H](C(=O)N[C@H](C(=O)O)c4cc(O)cc(O)c4-c4cc3ccc4O)[C@H](O)c3ccc(c(Cl)c3)Oc3cc2cc(c3O[C@@H]2O[C@H](CO)[C@@H](O)[C@H](O)[C@H]2O[C@H]2C[C@](C)(N)[C@H](O)[C@H](C)O2)Oc2ccc(cc2Cl)[C@H]1O [vancomycin],reduction of the MIC value in combination,S. saprophyticus,4 times
CN(C)C(=N)N=C(N)N [metformin],interaction with cisplatin,K562 cell line,synergism
N=C(N)c1ccccc1 [benzamidine],inhibition of CE-AρBza,[6]; BTEE as substrate,100%
same,inhibition of CE-AρBza,[6]; L-TAME as substrate,77%
"Clc1ccc2c([Se]c3ccccc3)ccnc2c1 [4-PSQ, 7-Chloro-4-(phenylselanyl) quinoline]",hypersensitivity,[7],reversed hypersensitivity induced by OXA and aging
same,RS and NOx levels,[7]; both ages,reduced the RS and NOx levels
CC(C)c1cc2c(c(O)c1O)C[C@@]13CCCC(C)(C)[C@@H]1C[C@@H]2O3 [brussonol],significant inhibition of LbOYE activity,[8],did not show significant inhibition
"Se-[(2,2-dimethyl-1,3-dioxolan-4-yl) methyl] 4-chlorobenzoselenolate [Se-DMC]",NPSH content,[9],No alteration
same,RS levels in paw,[9],reduced the RS levels
"CC(C)c1cccc(C(C)C)c1O [P, propofol]",deformability index (DI),[10],decreases
same,erythrocyte elastic modulus (μ),[10],significant increase
N-acetylcysteine [NAC],concentration shown to inhibit biofilm formation,[11],12.5 mg/mL
COC(=O)Nc1nc2ccc(C(=O)c3ccccc3)cc2[nH]1 [mebendazole],MIC,C. neoformans (ATCC H99),0.047 to 3.12 µM
COC(=O)Nc1nc2ccc(Sc3ccccc3)cc2[nH]1 [fenbendazole],MIC,C. neoformans (ATCC H99),0.047 to 3.12 µM
"COc1cc2c(c(OC)c1OC)-c1ccc(OC)c(=O)cc1[C@@H](NC(C)=O)CC2 [COL, colchicine]",survival rate,Drosophila melanogaster; 0.001-0.010 mg/mL,did not affect the fly survival rate
same,TBARS levels,Drosophila melanogaster,elevated in the 0.0025 mg/mL and 0.005 mg/mL groups
same,reactive species (RS) levels,Drosophila melanogaster,increase in RS levels at concentrations of 0.0025 and 0.005 mg/mL
"CC(=O)O[C@H]1C[C@@H]2CC[C@@H]3[C@H](CC[C@@]4(C)[C@H]3C[C@H]([N+]3(C)CCCCC3)[C@@H]4OC(C)=O)[C@@]2(C)C[C@@H]1N1CCCCC1 [V, vecuronium]",surface viscosity (η),[10],increase
"COc1ccc(Sc2ccc3nsnc3c2)cc1 [MTDZ, 5-((4-methoxyphenyl)thio)benzo[c][1,2,5]thiadiazole]",behavioral changes caused by SCO,[12],attenuated the behavioral changes caused by SCO
sodium selenite [Na2SeO3],proliferation,K562 cells,significant reduction
same,mitochondrial membrane potential (JC-1),K562 cells; 24 hours,significant reduction for all concentration
same,cell viability (MTT),K562 cells; 48 hours,significant reduced only in 100 μM or 1000 μM
same,reduction in cell number,"LUCENA cells; 1000 μM, 48 hours",66%
same,mitochondrial membrane potential (JC-1),LUCENA cells; 24 hours,only at concentrations of 100 μM and 1000 μM
